Reference: US11840528B2 (Hoffmann-La Roche Inc., priority 2018, dated 2023)

Key:
[1] = molecular target: T1, h-GABA-A α5β3γ2 (Homo sapiens, UniProt P18507+P31644); experiment: [3H]flumazenil competition binding assay, membranes of HEK293 cells expressing GABAA receptors; conditions: displacement of [3H]-Flumazenil 0.5 nM, HEK293 cells expressing human receptors, mean of two determinations; Table 1
Method in brief: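 Membranes from HEK293 cells transiently expressing human α5β3γ2 GABAA receptors, in Krebs-tris buffer pH 7.5, competed against [3H]flumazenil for 1 hour at 4° C to equilibrium. Bound radioactivity collected on GF/C filters and counted by liquid scintillation; Ki values are means of two determinations.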

[2] = molecular target: T1, h-GABA-A α5β3γ2; experiment: Two-electrode voltage clamp electrophysiology in Xenopus laevis oocytes expressing GABAA receptors, modulation of GABA EC20 current; assay type: cell-based; set-up: host or cells: Xenopus laevis oocytes micro-injected with RNA transcripts of the subunits; conditions: Table 1; for Efficacy (GABA) %: % modulation of GABA EC20 = 100*(Fold increase-1); for Fold increase h-GABA-A α5β3γ2 oocyte: test compound at approx. 30 fold its Ki, GABA at EC20
Method in brief: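 Human α5β3γ2 GABAA receptors were expressed in Xenopus oocytes by RNA injection, with γ2 RNA 5–10-fold higher, and recorded 3–5 days later by two-electrode voltage clamp at −80 mV at room temperature. The test compound, at about 30× its Ki, was co-applied during a second GABA EC20 pulse. Efficacy is the extremum of the point-by-point ratio to the first response, expressed as 100*(Fold increase−1).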

| Structure (SMILES) | Ki [1] [nM] | Efficacy (GABA) % [2] [%] | Fold increase h-GABA-A α5β3γ2 oocyte [2] |
| --- | --- | --- | --- |
| Cc1onc(-c2ccc(Cl)nc2)c1Cn1ncc(N2CC3(CCOCC3)C2)cc1=O [Example 257, 2-((3-(6-chloropyridin-3-yl)-5-methylisoxazol-4-yl)methyl)-5-(7-oxa-2-azaspiro[3.5]nonan-2-yl)pyridazin-3(2H)-one] | 36.6 | 108 | 2.08 |
| Cc1onc(-c2ccc(F)cc2)c1Cn1ncc(N2CCN(C(=O)C3(C)CC3)CC2)cc1=O [Example 15, 2-((3-(4-Fluorophenyl)-5-methylisoxazol-4-yl)methyl)-5-(4-(1-methylcyclopropanecarbonyl)piperazin-1-yl)pyridazin-3(2H)-one] | 35.2 | 120 | 2.2 |
| Cc1ccc(-c2noc(C)c2Cn2ncc(N3CC4(C[C@H](OC(F)F)CO4)C3)cc2=O)cn1 [Example 204, 5-[(7S)-7-(difluoromethoxy)-5-oxa-2-azaspiro[3.4]octan-2-yl]-2-[[5-methyl-3-(6-methyl-3-pyridyl)isoxazol-4-yl]methyl]pyridazin-3-one] | 15.1 | 160 | 2.6 |
| Cc1ccc(-c2noc(CF)c2Cn2ncc(N3CC4(CCCO4)C3)cc2=O)nn1 [Example 295, 2-((5-(fluoromethyl)-3-(6-methylpyridazin-3-yl)isoxazol-4-yl)methyl)-5-(5-oxa-2-azaspiro[3.4]octan-2-yl)pyridazin-3(2H)-one] | 16 | 74 | 1.74 |
| Cc1ccc(-c2noc(C)c2Cn2ncc(N3CC4(CC(C)CCO4)C3)cc2=O)nn1 (single isomer, unassigned) [Example 318] | 5.6 | 111 | 2.11 |
| Cc1onc(-c2ccc(Cl)nc2)c1Cn1ncc(N2CC3(CCC(F)CO3)C2)cc1=O (single isomer, unassigned) [Example 297] | 10.7 | 130 | 2.3 |
| Cc1ccc(-c2noc(C)c2Cn2ncc(N3CC4(CNC4)C3)cc2=O)cn1 [Example 77, 5-(2,6-diazaspiro[3.3]heptan-2-yl)-2-[[5-methyl-3-(6-methyl-3-pyridyl)isoxazol-4-yl]methyl]pyridazin-3-one] | 30.4 | 149 | 2.49 |
| Cc1ccc(-c2noc(C)c2Cn2ncc(N3CC4(CCCO4)C3)cc2=O)nn1 [Example 171, 2-[[5-methyl-3-(6-methylpyridazin-3-yl)isoxazol-4-yl]methyl]-5-(5-oxa-2-azaspiro[3.4]octan-2-yl)pyridazin-3-one] | 4.2 | 80 | 1.8 |
| Cc1onc(-c2ccc(Cl)nc2)c1Cn1ncc(N2CC3(C[C@@H](F)CO3)C2)cc1=O [Example 230, (R)-2-((3-(6-chloropyridin-3-yl)-5-methylisoxazol-4-yl)methyl)-5-(7-fluoro-5-oxa-2-azaspiro[3.4]octan-2-yl)pyridazin-3(2H)-one] | 45.1 | 127 | 2.27 |
| CO[C@H]1COC2(C1)CN(c1cnn(Cc3c(-c4ccc(C)nc4)noc3C)c(=O)c1)C2 [Example 134, 5-[(7R)-7-methoxy-5-oxa-2-azaspiro[3.4]octan-2-yl]-2-[[5-methyl-3-(6-methyl-3-pyridyl)isoxazol-4-yl]methyl]pyridazin-3-one] | 16.6 | 111 | 2.11 |
| Cc1ccc(-c2noc(C)c2Cn2ncc(-c3ccnc(OC4CCOC4)c3)cc2=O)cn1 (stereo not drawn) [Example 177, 2-((5-methyl-3-(6-methylpyridin-3-yl)isoxazol-4-yl)methyl)-5-(2-((tetrahydrofuran-3-yl)oxy)pyridin-4-yl)pyridazin-3(2H)-one] | 18.4 | 121 | 2.21 |
| Cc1ccc(-c2noc(C)c2Cn2ncc(N(C)CC(C)(C)O)cc2=O)cn1 [Example 70, 5-((2-hydroxy-2-methylpropyl)(methyl)amino)-2-((5-methyl-3-(6-methylpyridin-3-yl)isoxazol-4-yl)methyl)pyridazin-3(2H)-one] | 0.6 | 106 | 2.06 |
| Cc1onc(-c2ncc(C(F)(F)F)cn2)c1Cn1ncc(N2CC(OC3CC3)C2)cc1=O [Example 249, 5-(3-cyclopropoxyazetidin-1-yl)-2-((5-methyl-3-(5-(trifluoromethyl)pyrimidin-2-yl)isoxazol-4-yl)methyl)pyridazin-3(2H)-one] | 2.2 | 60 | 1.6 |
| Cc1onc(-c2ccc(Cl)nc2)c1Cn1ncc(N2CCN(c3cccnc3)CC2)cc1=O [Example 278, 2-((3-(6-chloropyridin-3-yl)-5-methylisoxazol-4-yl)methyl)-5-(4-(pyridin-3-yl)piperazin-1-yl)pyridazin-3(2H)-one] | 8 | 108 | 2.08 |
| CC(=O)N(C)[C@@H]1CCN(c2cnn(Cc3c(-c4ccc(C)nc4)noc3C)c(=O)c2)C1 [Example 2, N-methyl-N-[(3R)-1-[1-[[5-methyl-3-(6-methyl-3-pyridyl)isoxazol-4-yl]methyl]-6-oxo-pyridazin-4-yl]pyrrolidin-3-yl]acetamide] | 26.2 | 155 | 2.55 |
| Cc1onc(-c2ccc(Cl)nc2)c1Cn1ncc(N2CC(OC(F)F)C2)cc1=O [Example 255, 2-((3-(6-chloropyridin-3-yl)-5-methylisoxazol-4-yl)methyl)-5-(3-(difluoromethoxy)azetidin-1-yl)pyridazin-3(2H)-one] | 14.6 | 99 | 1.99 |
| CC(=O)N(C)[C@H]1CCN(c2cnn(Cc3c(-c4ccc(C)nc4)noc3C)c(=O)c2)C1 [Example 1, N-methyl-N-[(3S)-1-[1-[[5-methyl-3-(6-methyl-3-pyridyl)isoxazol-4-yl]methyl]-6-oxo-pyridazin-4-yl]pyrrolidin-3-yl]acetamide] | 10.2 | 63 | 1.63 |
| Cc1ccc(-c2noc(C)c2Cn2ncc(N3CC(OC(C)(C)C)C3)cc2=O)cn1 [Example 150, 5-(3-tert-butoxyazetidin-1-yl)-2-[[5-methyl-3-(6-methyl-3-pyridyl)isoxazol-4-yl]methyl]pyridazin-3-one] | 30.4 | 85 | 1.85 |
| CCO[C@@H]1CN(c2cnn(Cc3c(-c4ccc(Cl)nc4)noc3C)c(=O)c2)[C@@H]1C [Example 294, 2-((3-(6-chloropyridin-3-yl)-5-methylisoxazol-4-yl)methyl)-5-((2R,3R)-3-ethoxy-2-methylazetidin-1-yl)pyridazin-3(2H)-one] | 41.8 | 117 | 2.17 |
| CCOC1CN(c2cnn(Cc3c(-c4ccc(Cl)nc4)noc3C)c(=O)c2)C1 [Example 220, 2-((3-(6-chloropyridin-3-yl)-5-methyl-1,2-oxazol-4-yl)methyl)-5-(3-ethoxyazetidin-1-yl)pyridazin-3-one] | 25.3 | 118 | 2.18 |
| COc1ccc(-c2cnn(Cc3c(-c4ccc(C)nc4)noc3C)c(=O)c2)cc1F [Example 80, 5-(3-fluoro-4-methoxyphenyl)-2-((5-methyl-3-(6-methylpyridin-3-yl)isoxazol-4-yl)methyl)pyridazin-3(2H)-one] | 8.6 | 133 | 2.33 |
| CCOC1CN(c2cnn(Cc3c(-c4cnc(C)c(F)c4)noc3C)c(=O)c2)C1 [Example 213, 5-(3-ethoxyazetidin-1-yl)-2-((3-(5-fluoro-6-methylpyridin-3-yl)-5-methylisoxazol-4-yl)methyl)pyridazin-3(2H)-one] | 32.8 | 108 | 2.08 |
| COc1cccc(-c2cnn(Cc3c(-c4ccc(C)nc4)noc3C)c(=O)c2)n1 [Example 145, 5-(6-methoxy-2-pyridyl)-2-((5-methyl-3-(6-methyl-3-pyridyl)isoxazol-4-yl)methyl)pyridazin-3-one] | 26.2 | 119 | 2.19 |
